Laboratory results from PubChem BioAssay AID1259407 (Chemical Carcinogenesis Research Information System (CCRIS), 2018).
Activity calls are given as the source filed them. The rule behind the calls is not given here.

System: CCRIS mutagenicity, Ames/micronucleus/aberration tests
Experiment: CCRIS mutagenicity studies
[1] = Test System: AMES SALMONELLA TYPHIMURIUM, Strain/Indicator: TA98, Metabolic Activation: NONE, Method: PREINCUBATION

Measured: mutagenic call

Cc1ccccc1Cl
inactive: Test System: AMES SALMONELLA TYPHIMURIUM, Strain/Indicator: TA98, Metabolic Activation: HAMSTER, LIVER, S-9, AROCLOR 1254, Method: STANDARD PLATE inactive; negative | [1] inactive; negative | Test System: AMES SALMONELLA TYPHIMURIUM, Strain/Indicator: TA98, Metabolic Activation: NONE, Method: STANDARD PLATE inactive; negative | Test System: AMES SALMONELLA TYPHIMURIUM, Strain/Indicator: TA98, Metabolic Activation: RAT LIVER S-9, PHENOBARBITAL AND BETA-NAPHTHOFLAVONE, Method: PREINCUBATION inactive; negative | Test System: AMES SALMONELLA TYPHIMURIUM, Strain/Indicator: TA98, Metabolic Activation: RAT, LIVER, S-9, AROCLOR 1254, Method: STANDARD PLATE inactive; negative | Test System: AMES SALMONELLA TYPHIMURIUM, Strain/Indicator: TA100, Metabolic Activation: HAMSTER, LIVER, S-9, AROCLOR 1254, Method: STANDARD PLATE inactive; negative | Test System: AMES SALMONELLA TYPHIMURIUM, Strain/Indicator: TA100, Metabolic Activation: NONE, Method: PREINCUBATION inactive; negative | Test System: AMES SALMONELLA TYPHIMURIUM, Strain/Indicator: TA100, Metabolic Activation: NONE, Method: STANDARD PLATE inactive; negative | Test System: AMES SALMONELLA TYPHIMURIUM, Strain/Indicator: TA100, Metabolic Activation: RAT LIVER S-9, PHENOBARBITAL AND BETA-NAPHTHOFLAVONE, Method: PREINCUBATION inactive; negative | Test System: AMES SALMONELLA TYPHIMURIUM, Strain/Indicator: TA100, Metabolic Activation: RAT, LIVER, S-9, AROCLOR 1254, Method: STANDARD PLATE inactive; negative | Test System: AMES SALMONELLA TYPHIMURIUM, Strain/Indicator: TA102, Metabolic Activation: NONE, Method: PREINCUBATION inactive; negative | Test System: AMES SALMONELLA TYPHIMURIUM, Strain/Indicator: TA102, Metabolic Activation: RAT LIVER S-9, PHENOBARBITAL AND BETA-NAPHTHOFLAVONE, Method: PREINCUBATION inactive; negative | Test System: AMES SALMONELLA TYPHIMURIUM, Strain/Indicator: TA104, Metabolic Activation: NONE, Method: PREINCUBATION inactive; negative | Test System: AMES SALMONELLA TYPHIMURIUM, Strain/Indicator: TA104, Metabolic Activation: RAT LIVER S-9, PHENOBARBITAL AND BETA-NAPHTHOFLAVONE, Method: PREINCUBATION inactive; negative | Test System: AMES SALMONELLA TYPHIMURIUM, Strain/Indicator: TA1535, Metabolic Activation: HAMSTER, LIVER, S-9, AROCLOR 1254, Method: STANDARD PLATE inactive; negative | Test System: AMES SALMONELLA TYPHIMURIUM, Strain/Indicator: TA1535, Metabolic Activation: NONE, Method: PREINCUBATION inactive; negative | Test System: AMES SALMONELLA TYPHIMURIUM, Strain/Indicator: TA1535, Metabolic Activation: NONE, Method: STANDARD PLATE inactive; negative | Test System: AMES SALMONELLA TYPHIMURIUM, Strain/Indicator: TA1535, Metabolic Activation: RAT LIVER S-9, PHENOBARBITAL AND BETA-NAPHTHOFLAVONE, Method: PREINCUBATION inactive; negative | Test System: AMES SALMONELLA TYPHIMURIUM, Strain/Indicator: TA1535, Metabolic Activation: RAT, LIVER, S-9, AROCLOR 1254, Method: STANDARD PLATE inactive; negative | Test System: AMES SALMONELLA TYPHIMURIUM, Strain/Indicator: TA1537, Metabolic Activation: HAMSTER, LIVER, S-9, AROCLOR 1254, Method: STANDARD PLATE inactive; negative | Test System: AMES SALMONELLA TYPHIMURIUM, Strain/Indicator: TA1537, Metabolic Activation: NONE, Method: PREINCUBATION inactive; negative | Test System: AMES SALMONELLA TYPHIMURIUM, Strain/Indicator: TA1537, Metabolic Activation: NONE, Method: STANDARD PLATE inactive; negative | Test System: AMES SALMONELLA TYPHIMURIUM, Strain/Indicator: TA1537, Metabolic Activation: RAT LIVER S-9, PHENOBARBITAL AND BETA-NAPHTHOFLAVONE, Method: PREINCUBATION inactive; negative | Test System: AMES SALMONELLA TYPHIMURIUM, Strain/Indicator: TA1537, Metabolic Activation: RAT, LIVER, S-9, AROCLOR 1254, Method: STANDARD PLATE inactive; negative | Test System: AMES SALMONELLA TYPHIMURIUM, Strain/Indicator: TA1538, Metabolic Activation: HAMSTER, LIVER, S-9, AROCLOR 1254, Method: STANDARD PLATE inactive; negative | Test System: AMES SALMONELLA TYPHIMURIUM, Strain/Indicator: TA1538, Metabolic Activation: NONE, Method: PREINCUBATION inactive; negative | Test System: AMES SALMONELLA TYPHIMURIUM, Strain/Indicator: TA1538, Metabolic Activation: NONE, Method: STANDARD PLATE inactive; negative | Test System: AMES SALMONELLA TYPHIMURIUM, Strain/Indicator: TA1538, Metabolic Activation: RAT LIVER S-9, PHENOBARBITAL AND BETA-NAPHTHOFLAVONE, Method: PREINCUBATION inactive; negative | Test System: AMES SALMONELLA TYPHIMURIUM, Strain/Indicator: TA1538, Metabolic Activation: RAT, LIVER, S-9, AROCLOR 1254, Method: STANDARD PLATE inactive; negative | Test System: E. COLI, Strain/Indicator: WP2UVRA/PKM101, Metabolic Activation: RAT LIVER S-9, PHENOBARBITAL AND BETA-NAPHTHOFLAVONE, Method: PREINCUBATION inactive; negative | Test System: E. COLI, Strain/Indicator: WP2UVRA, Metabolic Activation: NONE, Method: PREINCUBATION inactive; negative | Test System: E. COLI, Strain/Indicator: WP2UVRA, Metabolic Activation: RAT LIVER S-9, PHENOBARBITAL AND BETA-NAPHTHOFLAVONE, Method: PREINCUBATION inactive; negative | Test System: E.COLI, Strain/Indicator: WP2UVRA/PKM101, Metabolic Activation: NONE, Method: PREINCUBATION inactive; negative | Test System: Mouse lymphoma, Strain/Indicator: L5178Y (tk+/tk-), Metabolic Activation: None, Method: Suspension/plate inactive; negative | Test System: Mouse lymphoma, Strain/Indicator: L5178Y (tk+/tk-), Metabolic Activation: Rat, Liver, S-9, Aroclor 1254, Method: Suspension/plate inactive; negative

O=C(O)[C@H]1OC(Oc2c3ccccc3c3ccc4cccc5ccc2c3c54)[C@H](O)[C@@H](O)[C@@H]1O (some centres not stated)
inactive: [1] inactive; negative | Test System: AMES SALMONELLA TYPHIMURIUM, Strain/Indicator: TA98, Metabolic Activation: RAT, LUNG, S-9, Method: PREINCUBATION inactive; negative
